Data set [1] is described as follows: Cyclic voltammetry, reduction potential. It counts as physicochemical.
Data set [2] in a line: physchem. The conditions noted are these: 25 °C, thermodynamic from solid.
For data set [3] the following is noted: cited from earlier work.
Data set [4] in a line: Solubility in water. The conditions noted are these: 25° C.

The values that follow come from US11923581B2, “Aqueous redox flow battery electrolytes with high chemical and electrochemical stability, high water solubility, low membrane permeability” (President and Fellows of Harvard College, priority 2016, dated 2024).

In general, solubility refers to how much of the substance goes into solution per volume. Turning to `C[N+](C)(C)CCC[n+]1ccc(-c2cc[n+](CCC[N+](C)(C)C)cc2)cc1` [Compound 1, (3-trimethylammonio)propyl viologen tetrachloride], the “reduction potential vs. Ag/AgCl reference electrode” value in data set [1] (pH 7) is −0.55 V. Besides, in data set [1] (pH 7), the “reduction potential vs. RHE” value is on record as “+0.07 V”. Besides, the solubility stood at 2000 mM in data set [2] (pH 7, water) and 2000 mM in data set [2] (water).

For the compound `C[N+](C)(C)CCCNC(=O)[c-]1cccc1.[Cl-].[Fe+2].c1cc[cH-]c1` [Compound 7, N-((3-trimethylammonio)propyl) ferrocenecarboxamide chloride], in data set [1] (pH 7), the “reduction potential higher than that of 2” value is on record as roughly 240 mV, the “reduction potential vs SHE” value was “+0.63 V” and the “reduction potential vs. RHE” value is “+1.04 V”.

Turning to `C[n+]1ccc(-c2cc[n+](C)cc2)cc1` [MV dichloride, methyl viologen], the “solubility in water at pH 7” value in data set [3] is reported as 3.0 M.

Turning to `C[N+](C)(C)CCC[c-]1cccc1.C[N+](C)(C)CCC[c-]1cccc1.[Cl-].[Cl-].[Fe+2]` [Compound 2, bis((3-trimethylammonio)propyl)ferrocene dichloride], in data set [1] (pH 7), the “reduction potential vs. Ag/AgCl reference electrode” value is “+0.21 V” and the “reduction potential vs. RHE” value is recorded as “+0.83 V”.

For `C[N+](C)(C)C[c-]1cccc1.F[B-](F)(F)F.[Fe+2].c1cc[cH-]c1` [Compound 3], the “reduction potential vs. RHE” value in data set [1] (pH 7, converted from the measured potential) is given as “+1.05 V”. The “reduction potential vs. Ag/AgCl reference electrode” value in data set [1] (pH 7, cyclic voltammetry) is listed as “+0.43 V”. Besides, the water solubility in data set [4] was roughly 400 mM.
